# Key:
# hCD34+ cells [1] = experiment: Vector copy number (VCN) analysis by qPCR of lentivirus-transduced hCD34+ cells (pooled or individual MethoCult colonies, liquid culture); assay type: cell-based, human; details: for VCN with increasing concentrations of PGE2: pooled colonies
# Protocol: (§1) Washed cells were resuspended in 2 mL Stem Cell Growth Medium (SCGM)+cytokines and transferred to a standard 12-well non-adherent tissue culture plate. Cells were maintained for an additional 6 days in a standard humidified tissue culture incubator (5% CO2) and then subjected to Vector Copy Number (VCN) analysis or single-cell nested PCR to determine transduction efficiency. Both VCN and the single-cell nested PCR assay were performed with qPCR using primers and probes specific to both the vector and an endogenous control gene. VCN was determined by dividing the amount of vector signal by the amount of the endogenous control gene. For the single-cell nested PCR assay, wells that contained a cell positive for the endogenous control gene and wells that contained a marked cell positive for both the vector and the endogenous control gene were enumerated, and the proportion of marked cells, or transduction efficiency, was calculated.
# (§2) Washed cells were resuspended in 200 μL SCGM and then transferred to 3 mL aliquots of cytokine-supplemented methylcellulose (for example, Methocult M4434 Classic). 1.1 mL was then transferred to parallel 35-mm tissue culture dishes using a blunt 16-gauge needle. Dishes were maintained in a standard humidified tissue culture incubator for 12-16 days and colonies were scored for size, morphology, and cellular composition. Individual colonies were then picked for subsequent VCN analysis or the contents of an entire 35-mm dish were pooled and then subject to VCN analysis.
# hCD34+ cells [2] = experiment: Transduction efficiency / % LVV+ (single-cell nested PCR or individual colony qPCR); assay type: cell-based, human; details: for transduction efficiency: low-transducing cell lot, individual colony qPCR (Example 11)
# Protocol: as §1
# After a 7 day liquid culture, cells were collected and single-cell sorted into a 96-well plate. Cells were lysed and subjected to nested PCR to determine presence of LVV in a single cell. Percentage of cells containing both LVV and an endogenous control gene was determined from number of cells containing the endogenous control gene. […] FIG. 5B.
# % LVV+: Single cells were isolated by FACS and deposited in 96-well plates containing lysis buffer. Following lysis, the viral-specific sequence from a lentiviral vector encoding a β-globin variant was amplified by PCR along with a control genomic sequence not present in the vector. The PCR products from each single cell were then analyzed by qPCR for presence of genomic sequence, indicating a successfully captured cell. […] Fraction of vector positive cells was then calculated across the entire set of sampled cells. The % LVV+ of the β0/β0 hCD34+ cells was about 77%. FIG. 18, right panel.
# [3] = tested on: hCD34+ cells transplanted into NSG mice; experiment: In vivo VCN of engrafted human cells in bone marrow of NSG mice
# From the text: HSCs transduced with lentivirus were transplanted into NOD/SCID Gamma (NSG) mice to assess the effect of candidate compounds on viral transduction of human long-term hematopoietic stem cells. Transduced cells were washed and resuspended in phosphate-buffered saline (PBS) and transplanted into the tail vein of sub-myeloablated adult NSG mice, with minimal residual toxicity. Mice were housed in a pathogen-free environment per standard IACUC animal care guidelines. At 4 months post-transplant bone marrow (BM) was harvested from both femurs and analyzed for both VCN and engraftment of human cells by staining with an anti-hCD45 antibody (BD #561864) followed by flow cytometry analysis.
# Meta-analysis of NSG transplants with PGE2-treated lentiviral transduced hCD34+ cells from healthy donors (n=3). Human CD34^+ cells were transplanted into sub-myeloablated female NSG mice and bone marrow (BM) was analyzed at 4 months post-transplant. BM was harvested from both femurs of NSG mice and half of the sample was stained with anti-hCD45 for approximately 30 minutes at 4° C. Following incubation, samples were washed and analyzed for human CD45^+ cells via flow analysis using an anti-hCD45 antibody (BD #561864). […] FIG. 1A. The mean VCN of engrafted PGE2-treated hCD34^+ cells was about two-fold higher than the mean VCN of control cells at 4 months post-transplant. FIG. 1B.
# A low-transducing cell lot of hCD34^+ cells (VCN of 0.3 under standard conditions) was transduced with lentiviral vector in the presence of protamine sulfate, PGE2, F108 (200 μg/mL or 1000 μg/mL), or the combination of PGE2 and F108 for 24 hours. Following transduction, cells were washed and immediately injected into busulfan-treated NSG mice.
# Two months post-transplant, 5 mice/group were sacrificed and BM was harvested and analyzed to evaluate in vivo VCN. The in vivo VCN of engrafted cells transduced in the presence of protamine sulfate was very similar to the graft VCN (˜0.3). in vivo VCN increased approximately 2-fold in PGE2-treated cells. […] FIG. 10C.
# [4] = tested on: hCD34+ cells transplanted into NSG mice; experiment: Engraftment and differentiation of transduced hCD34+ cells in NSG mice (flow cytometry); assay type: in vivo
# From the text: HSCs transduced with lentivirus were transplanted into NOD/SCID Gamma (NSG) mice to assess the effect of candidate compounds on viral transduction of human long-term hematopoietic stem cells. […] Mice were housed in a pathogen-free environment per standard IACUC animal care guidelines.
# Meta-analysis of NSG transplants with PGE2-treated lentiviral transduced hCD34+ cells from healthy donors (n=3). Human CD34^+ cells were transplanted into sub-myeloablated female NSG mice and bone marrow (BM) was analyzed at 4 months post-transplant. BM was harvested from both femurs of NSG mice and half of the sample was stained with anti-hCD45 for approximately 30 minutes at 4° C. […] FIG. 1A. […] FIG. 1B.
# The BM was analyzed for engraftment of hCD34^+ cells. Cells were stained with an antibody cocktail recognizing various cell surface markers (CD45, CD33, CD3, CD19) and analyzed via flow cytometry.
# hCD34+ cells [5] = experiment: Colony formation in MethoCult / methylcellulose; assay type: cell-based, human
# Protocol: as §2
# Colonies in MethoCult were enumerated using STEMvision (Stemcell Technologies). […] FIG. 3.
# [6] = tested on: long-term HSCs (CD34+CD38-CD45RA-CD90+CD49f+); experiment: GFP lentiviral vector transduction of phenotypic long-term HSCs (flow cytometry); assay type: cell-based, human; details: GFP LVV; 4 days of culture
# From the text: Human CD34^+ cells were transduced with a GFP lentiviral vector (LVV) and subsequently cultured in cytokine-containing media. After 4 days of culture, these cells were stained for cell surface markers that phenotypically characterize long-term HSCs (CD34^+CD38^−CD45RA^−CD90^+CD49f^+). […] The proportion of transduced phenotypic long-term HSCs increased to >90% in cells transduced in the presence of F108, with or without the supplementation of PGE2. FIG. 22.
# Human CD34+ cells = experiment: ALDP expression by intracellular staining and flow cytometry; assay type: cell-based; details: MND-ABCD1 LVV; AMN, ALD patients and healthy donors; day 4 or 5; vs PS
# From the text: Human CD34^+ cells from AMN patients (FIG. 26, panels A-D), ALD patients (FIG. 26, panels E-H), and healthy donors (HD; FIG. 26, panels I-L) were transduced with a lentiviral vector (LVV) lacking a WPRE and comprising an MND promoter operably linked to a polynucleotide encoding ABCD1. […] Cultured cells were stained intracellularly for ALDP expression on day 4 or 5 and analyzed by flow cytometry.
compound,measurement,setting,value
"CCCCC[C@H](O)/C=C/[C@H]1[C@H](O)CC(=O)[C@@H]1C/C=C\CCCC(=O)O [PGE2, prostaglandin E2]",fold increase in mean VCN compared to protamine sulfate,"hCD34+ cells [1]; 24 hour transduction, 14 day MethoCult pooled colonies (Example 6)",2 fold
same,VCN at D7 in cytokine cultured cells and D14 pooled methylcellulose colonies,"hCD34+ cells [1]; MND-ABCD1 LVV, AMN, ALD patients and healthy donors",increased VCN
same,VCN with increasing concentrations of PGE2,"hCD34+ cells [1]; in the presence of F108, PGE2 increased at least 10-fold",does not result in a dose-dependent increase in VCN
same,VCN with increasing concentrations of PGE2,hCD34+ cells [1]; in the presence of protamine sulfate,dose-dependent increase in VCN
same,increase of mean VCN of graft vs protamine sulfate,"hCD34+ cells [1]; low-transducing cell lot, 24 hours (Example 11)",approximately 3 fold
same,transduction efficiency,hCD34+ cells [2],~40%
same,mean VCN of engrafted cells vs control cells,"[3]; 4 months post-transplant, healthy donors n=3",about two-fold
same,increase of in vivo VCN over protamine sulfate,[3]; four months post-transplant,approximately 1.6 fold
same,increase of in vivo VCN over protamine sulfate,[3]; two months post-transplant,approximately 2 fold
same,effect on hCD34+ engraftment,[4]; 2 and 4 months post-transplant,no statistically significant effect
same,proportion of myeloid (CD33+) or lymphoid (CD3+ or CD19+) cells,[4]; 2 and 4 months post-transplant,no significant difference
same,percentage of hCD45+ cells in mouse BM (engraftment),"[4]; 4 months post-transplant, PGE2-treated vs control-treated",No statistically significant difference
same,colony formation ability of transduced cells,"hCD34+ cells [5]; 24 hour transduction, 14 day MethoCult (Example 4)",did not alter the colony formation ability
same,proportion of phenotypic long-term HSCs expressing GFP,[6],45%
same,number of cells expressing ALDP,Human CD34+ cells,increased the number of cells expressing ALDP
protamine sulfate,VCN of pooled colonies,"hCD34+ cells [1]; EF1α-IL2Rγ LVV, MOI 10 or 30",below 1.5
same,VCN of pooled colonies,"hCD34+ cells [1]; EF1α-TPP1 or MND-TPP1 LVV, MOI 5 or 15",below 1.5
same,distribution of individual colony VCNs,"hCD34+ cells [1]; F108 and PGE2 at MOI 10, protamine sulfate at MOI 25",0-6
same,% LVV+ colonies,hCD34+ cells [2]; IL2Rγ LVV from PrCL1 or PrCL2,20-30%
same,% LVV+ colonies,"hCD34+ cells [2]; IL2Rγ LVV, transiently prepared",50-60%
same,transduction efficiency,hCD34+ cells [2],~20%
same,in vivo VCN of engrafted cells,[3]; four months post-transplant,~0.3
same,in vivo VCN of engrafted cells,[3]; two months post-transplant,~0.3
same,ability of hematopoietic progenitors to form colonies (erythroid or myeloid),"hCD34+ cells [5]; 8 μg/mL PS, 10 or 1000 μg/mL F108, 1000 μg/mL F108 with 8 μg/mL PS",Neither PS nor F108 significantly affected
same,colony formation,hCD34+ cells [5]; IL2Rγ LVV (Example 26),did not significantly impact colony formation
same,proportion of phenotypic long-term HSCs expressing GFP,[6],approximately 30%

# — US12234476B2, “VCN enhancer compositions and methods of using the same” (bluebird bio, Inc., priority 2016, dated 2025)
